According to patent US20040077580A1, “Antisense modulation of PI3K P85 Expression” (priority 2000, published 2004):
Strand notation (5' to 3'): a small letter for the sugar, then the base; units joined by * are phosphorothioate-linked, units joined directly phosphodiester-linked; [ ] holds rarer units or linkages, { } end groups; capitals alone tell only the bases. e = 2'-O-(2-methoxyethyl) (MOE); [5mC] = 5-methylcytosine; d = 2'-deoxy (DNA)

Experiments:
mouse PI3K p85 = assay: Inhibition of mouse PI3K p85 mRNA levels by antisense oligonucleotides, real-time quantitative RT-PCR; format: cell-based; design: concentration or dose not given beside the values; conditions: chimeric phosphorothioate 2′-MOE gapmers, averaged from two experiments
Procedure: Cells were harvested 16 hours after oligonucleotide treatment.
Target sites are indicated by nucleotide numbers, as given in the sequence source reference (Genbank accession no. U50413; SEQ ID NO: 48), to which the oligonucleotide binds.
Cytidine residues are 5-methylcytidines throughout the oligonucleotides.
Data were obtained by real-time quantitative RT-PCR as described in other examples herein and are averaged from two experiments. […] If present, “N.D.” indicates “no data”.

PI3K p85 mRNA = PI3K p85 mRNA expression in liver and fat of treated mice; format: in vivo, mouse
Procedure: Ob/ob mice are used as a model of obesity. The ob/ob phenotype is due to a mutation in the leptin gene on a C57BL/6J-Lep(ob) background.
In accordance with the present invention, the effects of ISIS 131410 (SEQ ID NO: 56) on PI3K p85 mRNA expression was investigated in the ob/ob mouse model of obesity.
Mice were treated at a dose of 25 mg/kg of ISIS 141925 or 25 mg/kg of ISIS 131410.
Treatment was continued for two weeks after which the mice were sacrificed and tissues collected for mRNA analysis. RNA values were normalized and are expressed as a percentage of saline treated control.
Lean littermates (ob/wt) were also examined for mRNA reduction of PI3K p85 in the liver at doses of 25 and 50 mg/kg of ISIS 131410 or saline treatment. In these animals, at both doses, the level of expression was reduced only minimally to 80% of control.

[1] = Serum insulin levels in ob/ob mice; format: in vivo, mouse; conditions: male ob/ob mice; 50 mg/kg intraperitoneal once a week for two weeks
Source text: Treatment was continued for two weeks with serum insulin levels being measured on day 14.

[2] = for Blood glucose level at day 14: 25 or 50 mg/kg intraperitoneal once a week
PI3K p85 splice variants = assay: Expression of PI3K p85 splice variants in liver, immunoprecipitation with p110 and Western blot with p85pan antibody; format: in vivo, mouse; conditions: livers of both ob/ob and wild-type mice
Source text: ISIS 131410 is one of several antisense oligonucleotides of the present invention that hybridize to the longer p85α splice variant and not to the p55α or the p50α splice variant. Studies were therefore designed to study the effects of this antisense oligonucleotide on expression product of PI3K p85α splice variant.

[3] = male ob/ob mice, 25 mg/kg intraperitoneal once a week for two weeks, percentage of saline treated control
[4] = ob/ob mice, starting level 250 mg/dL at day 1

| Substance | % Inhib. of mouse PI3K p85 mRNA levels (mouse PI3K p85) | further results |
| --- | --- | --- |
| 131426 (antisense eG*e[5mC]*eA*eT*e[5mC]*dA*dA*dT*dG*dT*dT*d[5mC]*dT*d[5mC]*dT*e[5mC]*eA*eA*eA*eG) [compound 131426] | 75% |  |
| GCCACCGCCTATGTCTTCTC (listed as DNA, chemistry not given here) [ISIS 141925, reference compound] |  | PI3K p85 mRNA level in fat (PI3K p85 mRNA; [3]): no reduction; PI3K p85 mRNA level in liver (PI3K p85 mRNA; [3]): no reduction; Serum insulin level at day 14 [1]: 28 ng/mL; Blood glucose level at day 14 [2, 4]: 240 mg/dL |
| atactgaagcgtaagccaac (eA*eT*eA*e[5mC]*eT*dG*dA*dA*dG*d[5mC]*dG*dT*dA*dA*dG*e[5mC]*e[5mC]*eA*eA*e[5mC]; antisense) [ISIS 131415] | at least 60% |  |
| ccagtggtttcattgtagcc (e[5mC]*e[5mC]*eA*eG*eT*dG*dG*dT*dT*dT*d[5mC]*dA*dT*dT*dG*eT*eA*eG*e[5mC]*e[5mC]; antisense) [ISIS 131411] | at least 60% |  |
| ccatctgtcctccatcaacg (e[5mC]*e[5mC]*eA*eT*e[5mC]*dT*dG*dT*d[5mC]*d[5mC]*dT*d[5mC]*d[5mC]*dA*dT*e[5mC]*eA*eA*e[5mC]*eG; antisense) [ISIS 131408] | at least 60% |  |
| cctggccatcactgaatcca (CCTGGCCATCACTGAATCCA; chemistry not given here) [ISIS 131410] | at least 60% | PI3K p85 mRNA level in liver (PI3K p85 mRNA; lean littermates (ob/wt), at both doses, 25 and 50 mg/kg): 80 % of control; PI3K p85 mRNA level in fat (PI3K p85 mRNA; [3]): 55 % of control; PI3K p85 mRNA level in liver (PI3K p85 mRNA; [3]): 52 % of control; Serum insulin level at day 14 [1]: 5 ng/mL; Hypoglycemia as a result of oligonucleotide treatment ([2]; mouse, in vivo): no hypoglycemia induced; Blood glucose level at day 14 [2, 4]: 150 mg/dL; Blood glucose level at day 7 ([2]; ob/ob mice, all doses (25 or 50 mg/kg) intraperitoneal once a week, starting level 250 mg/dL at day 1): 180 mg/dL; Blood glucose level, constant throughout the study (average) ([2]; wild-type mice, all treatment groups (25 or 50 mg/kg), two weeks): 150 mg/dL; Species of PI3K p85 splice variant present in liver (PI3K p85 splice variants): alters the species of PI3K p85 variant present in favor of the p50α variant |
| cgatctctcggtactcagct (e[5mC]*eG*eA*eT*e[5mC]*dT*d[5mC]*dT*d[5mC]*dG*dG*dT*dA*d[5mC]*dT*e[5mC]*eA*eG*e[5mC]*eT; antisense) [ISIS 131420] | at least 60% |  |
| cgctccactctcagcttcac (e[5mC]*eG*e[5mC]*eT*e[5mC]*d[5mC]*dA*d[5mC]*dT*d[5mC]*dT*d[5mC]*dA*dG*d[5mC]*eT*eT*e[5mC]*eA*e[5mC]; antisense) [ISIS 131407] | at least 60% |  |
| cttgctgctccgtgtcagct (e[5mC]*eT*eT*eG*e[5mC]*dT*dG*d[5mC]*dT*d[5mC]*d[5mC]*dG*dT*dG*dT*e[5mC]*eA*eG*e[5mC]*eT; antisense) [ISIS 131412] | at least 60% |  |
| gcactcatgtctgcagctct (eG*e[5mC]*eA*e[5mC]*eT*d[5mC]*dA*dT*dG*dT*d[5mC]*dT*dG*d[5mC]*dA*eG*e[5mC]*eT*e[5mC]*eT; antisense) [ISIS 131409] | at least 60% |  |
| gcatcaatgttctctcaaag (eG*e[5mC]*eA*eT*e[5mC]*dA*dA*dT*dG*dT*dT*d[5mC]*dT*d[5mC]*dT*e[5mC]*eA*eA*eA*eG; antisense) [ISIS 131426] | at least 60% |  |
| gctcccgacattccacgtct (eG*e[5mC]*eT*e[5mC]*e[5mC]*d[5mC]*dG*dA*d[5mC]*dA*dT*dT*d[5mC]*d[5mC]*dA*e[5mC]*eG*eT*e[5mC]*eT; antisense) [ISIS 131421] | at least 60% |  |
| ggtgtaagagtgtaatcgcc (eG*eG*eT*eG*eT*dA*dA*dG*dA*dG*dT*dG*dT*dA*dA*eT*e[5mC]*eG*e[5mC]*e[5mC]; antisense) [ISIS 131417] | at least 60% |  |
| tcggcgagatagcgtttgaa (eT*e[5mC]*eG*eG*e[5mC]*dG*dA*dG*dA*dT*dA*dG*d[5mC]*dG*dT*eT*eT*eG*eA*eA; antisense) [ISIS 131414] | at least 60% |  |
| tgctggtgctggctgtctct (eT*eG*e[5mC]*eT*eG*dG*dT*dG*d[5mC]*dT*dG*dG*d[5mC]*dT*dG*eT*e[5mC]*eT*e[5mC]*eT; antisense) [ISIS 131416] | at least 60% |  |
